Assays:
RPMI 8226 cells [1] = assay: Cytotoxicity measurement (WST-1), RPMI 8226; assay type: cell-based, human; details: Homo sapiens; RPMI 8226, 48 hours, WST-1, n = 3; read-out: Cytotoxicity EC50 (cell viability)
Protocol: Cellular assays were performed on human multiple myeloma RPMI 8226 cells (Figure 4). First, relative inhibition of proteasome subunits β5 and β2 for all analogues and the natural product was measured at 30 nM compound concentration. Following incubation of the compounds in cell culture for 6 h, cells were lysed, and fluorogenic subunit-specific peptide substrates Suc-LLVY-AMC (β5) or Ac-RLR-AMC (β2) were incubated with the lysates; fluorescence readings provided relative proteasome activity levels in comparison with DMSO (Figure 4A). Next, cytotoxicity screening was performed at 30 and 100 nM concentrations for sufficient coverage of dynamic range (Figure 4B). […] Therefore, the improved cytotoxicity of phenyl cepafungin 50 likely results from a more pronounced loss of β5 function in RPMI 8226 cells. This drastic increase in proteasome inhibition may be due to π-stacking of the lipid tail phenyl ring with the β6 subunit residues Tyr106 and/or Tyr5. The β2 subunit-bound natural product has residues Tyr102 and Phe103 on the adjacent β3 subunit oriented further away from the terminal lipid methyl groups, and presumably would not facilitate π-stacking to the extent possible at the adjacent β6 subunit (see Figure 3 and Figure S4). […] These combined modifications were made in hopes that the effects of both substitutions would be additive. […] The presence of a Thr residue next to the cepafungin macrocycle appears to be favored over the ethyl side chain of desoxy-Thr analogue 44 as indicated by cytotoxicity and hydrogen-bonding seen in the cepafungin-bound crystal structure (Figures 3 and 4B).
AMC (β5) or Ac-RLR-AMC (β2). […]
Cytotoxicity Measurements
in DMSO) or DMSO and cultured for 48 hours. Toxicity was determined using the WST-1 assay
(Roche) according to the protocol of the manufacturer. (n = 3)
Figure S1. […]

proteasome subunit β2 = biological target: T1, proteasome subunit β2 (Homo sapiens, UniProt Q99436); assay: In situ β2 proteasome activity assay (Ac-RLR-AMC) in RPMI 8226 cells; assay type: cell-based; details: 6 h, n = 3, Figure 4D
T1 sequence (Q99436 44-277): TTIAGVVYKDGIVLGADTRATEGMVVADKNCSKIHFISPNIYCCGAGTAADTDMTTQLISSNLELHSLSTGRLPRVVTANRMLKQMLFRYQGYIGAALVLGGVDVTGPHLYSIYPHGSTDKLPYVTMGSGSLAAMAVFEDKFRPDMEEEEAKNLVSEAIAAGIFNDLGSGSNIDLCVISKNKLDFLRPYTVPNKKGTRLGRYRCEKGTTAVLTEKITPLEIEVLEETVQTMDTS
Protocol: Cellular assays were performed on human multiple myeloma RPMI 8226 cells (Figure 4). First, relative inhibition of proteasome subunits β5 and β2 for all analogues and the natural product was measured at 30 nM compound concentration. Following incubation of the compounds in cell culture for 6 h, cells were lysed, and fluorogenic subunit-specific peptide substrates Suc-LLVY-AMC (β5) or Ac-RLR-AMC (β2) were incubated with the lysates; fluorescence readings provided relative proteasome activity levels in comparison with DMSO (Figure 4A). Next, cytotoxicity screening was performed at 30 and 100 nM concentrations for sufficient coverage of dynamic range (Figure 4B). […] Therefore, the improved cytotoxicity of phenyl cepafungin 50 likely results from a more pronounced loss of β5 function in RPMI 8226 cells. This drastic increase in proteasome inhibition may be due to π-stacking of the lipid tail phenyl ring with the β6 subunit residues Tyr106 and/or Tyr5. […]
Mammalian cells were maintained in RPMI-1640 media. […] Cells were lysed by needle sonication to obtain cell lysates and protein concentration was determined using the […]
fluorescence was read at A360ex/A460em. […]
in DMSO) or DMSO and cultured for 48 hours. Toxicity was determined using the WST-1 assay (Roche) according to the protocol of the manufacturer. […]

[2] = test system: proteasome subunits β2/2i, β5/5i, β1i, β1; details: in-gel labeling, cited from earlier work
RPMI 8226 cells [3] = details: ∼3700 proteins quantified, 19 in common; cited from earlier work

CC(C)CCCCCC=CC=CC(=O)NC(C(=O)NC1CC(O)CCNC(=O)C=CC(C)NC1=O)C(C)O (centres unmarked) [compound 1, cepafungin I]
EC50 (RPMI 8226 cells [1]): 14 nM
IC50 (proteasome subunit β2): 43 nM
engagement of β1 ([2]; RPMI 8226, even at high concentrations): very little engagement
competition for subunits β2/2i, β5/5i and β1i ([2]; RPMI 8226): low-nanomolar concentrations
number of proteins upregulated compared to DMSO control (RPMI 8226 cells [3]): 88 proteins

Source: publication PMC9951290, “Comprehensive Structure–Activity Relationship Studies of Cepafungin Enabled by Biocatalytic C–H Oxidations” (ACS Central Science, 2023)
